{
  "source": "patent US20200157508A1",
  "about": "“SYSTEMS AND METHODS FOR GROWTH OF INTESTINAL CELLS” (CEDARS-SINAI MEDICAL CENTER, priority 2017, published 2020)",
  "key": {"[1]": {"test_system": "HIO-derived epithelial cells", "test": "qRT-PCR gene expression in Intestine-Chip exposed to IFNγ", "type": "cell-based, human", "description": "(§1) FIG. 3. a) Western blot analysis showing phosphorylation of STAT1 in Chips containing either HIO-derived intestinal epithelial or Caco2 cells in response to exposure of increasing concentrations (0-1000 ng/ml) of IFNγ in the lower channel for 1 hour. Both GAPDH and STAT1 were used as loading controls. Image J analysis was used to quantify levels of phosphorylation of STAT1 compared to GAPDH b) Quantitative reverse transcription-polymerase chain reaction analyses of IDO1 and GBP1 and c) PLA2G2a, Muc4, lysozyme, Reg3γin Chips incorporating either HIO-derived epithelial or Caco2 cells in response to exposure of 10 ng/ml of IFNγ in the lower channel for 3 days. Three independent experiments were carried out; data represent mean and s.e.m; *P<0.05, **P<0.01 compared to respective untreated controls. […] Two independent experiments were carried out; data represent mean±SEM. **P<0.01. AUC, area under the curve; CTL, control; GAPDH, glyceraldehyde-3-phosphate dehydrogenase.\n(§2) PBS was flushed through both the upper and lower channels and total RNA from the Intestine-Chip was extracted in situ with the RNeasy mini kit (Qiagen, USA). cDNA was generated from 1 μg of RNA using the Omniscript RT Kit (Qiagen). qRT-PCR was performed using SYBR® Select Master Mix (Applied Biosystems) on a BioRad CFX384 Real-Time System. Primer sequences as follows:\n(§3) As Caco2 cells are routinely used to assess intestinal epithelial responses and have previously been incorporated into Chips, the Inventors also included these in the Inventors' studies to directly compare the Intestine-Chip. […] Thus both cell types were incubated with 10 ng/ml of IFNγ for 3 days and assessed for upregulation of indoleamine 2 3-dioxygenase (IDO1) and guanylate binding protein 1 (GBP1)."}, "[2]": {"test_system": "HIO-derived intestinal epithelial cells", "test": "Western blot of STAT1 phosphorylation in Intestine-Chip exposed to IFNγ", "type": "cell-based, human", "details": "10-1000 ng/ml in lower channel for one hour", "description": "as §1\n(§4) PBS was flushed through both the upper and lower channels and total protein was extracted in situ using cell lysis buffer (Cell Signaling cat #9803s) supplemented with protease and […] inhibitor (Sigma, # MSSAFE). Protein concentration was then determined and equal amounts of protein lysates were heat denatured and separated on a 10% mini-protean precast gel (Bio-Rad, #456-8034). […]"}, "Caco2 cells [3]": {"test_system": "Caco2 cells", "test": "Western blot of STAT1 phosphorylation in Caco2 Chip exposed to IFNγ", "type": "cell-based", "details": "10-1000 ng/ml in lower channel for one hour", "description": "as §1, §4"}, "Caco2 cells [4]": {"test_system": "Caco2 cells", "test": "qRT-PCR gene expression in Caco2 Chip exposed to IFNγ", "type": "cell-based", "details": "10 ng/ml for 3 days", "description": "as §1, §2, §3"}, "[5]": {"details": "10 ng/ml in lower channel for 3 days"}, "[6]": {"details": "attenuated in comparison to HIO-epithelial cells"}},
  "data": [
    {"substance": "IFNγ: a cytokine known to be upregulated in IBD", "values": [
      {"measurement": "Muc4 expression", "setting": "[1]; 10 ng/ml for 3 days", "value": "significant upregulation"},
      {"measurement": "PLA2G2a expression", "setting": "[1]; 10 ng/ml for 3 days", "value": "significant upregulation"},
      {"measurement": "Reg3γ expression", "setting": "[1]; 10 ng/ml for 3 days", "value": "no differences"},
      {"measurement": "lysozyme expression", "setting": "[1]; 10 ng/ml for 3 days", "value": "no differences"},
      {"measurement": "GBP1 expression vs controls", "setting": "[1]; [5]", "value": "significant increase"},
      {"measurement": "IDO1 expression vs controls", "setting": "[1]; [5]", "value": "significant increase"},
      {"measurement": "phosphorylation of STAT1", "setting": "[2]", "value": "robust phosphorylation of STAT1"},
      {"measurement": "phosphorylation of STAT1", "setting": "Caco2 cells [3]", "value": "robust phosphorylation of STAT1"},
      {"measurement": "expression of PLA2G2a, Muc4, lysozyme, Reg3γ", "setting": "Caco2 cells [4]", "value": "did not observe any significant upregulation"},
      {"measurement": "GBP1 expression vs controls", "setting": "Caco2 cells [4]; [6]", "value": "significant upregulation"},
      {"measurement": "IDO1 expression vs controls", "setting": "Caco2 cells [4]; [6]", "value": "significant upregulation"}
    ]}
  ]
}
